Columns and labels:
[1] = target: T1, binding between NRF2 and KEAP1 (Homo sapiens, UniProt Q14145); experiment: Measurement 1 of Nrf2 activating action (binding assay): BRET assay of inhibition of the binding between NRF2 and KEAP1; conditions: 50% binding inhibitory concentration, NanoLuc-NRF2 / KEAP1-HaloTag cell lysates
T1 construct: expressed in transfected cells; host or cells: HCE-T cells; each protein was expressed separately, and the two cell lysates were mixed in the well
Method: Compounds 1 to 53 produced in the Examples were used as test substances.
The inhibitory activity of each compound on the binding between NRF2 and KEAP1 was measured by bioluminescence resonance energy transfer (BRET) assay. A plasmid having human NRF2 (Original Clone ID: ha01449s1) sequence fused with NanoLuc (19 kDa, Promega) at the N-terminal was transduced into HCE-T cells using FuGENE HD (Promega). 48 hours after transduction, the cell lysate was collected and used as an NRF2-expressing cell lysate. A plasmid having human KEAP1 (Original Clone ID: cs00328) sequence fused with HaloTag (33 kDa, Promega) at the C-terminal was transduced into HCE-T cells using FuGENE HD (Promega). After 24 hours, HaloTag Nano BRET 618 Ligand (Promega) was added to the medium. The cell lysate cultured for 24 hours after the addition was used as a KEAP1-expressing cell lysate.
The NRF2-expressing cell lysate and the KEAP1-expressing cell lysate were adjusted so that the luminescence and fluorescence intensities per well were constant. Tables 1 and 2 show the formulation of each reaction solution.
Each test substance at a concentration 100 times higher than the test concentration was dissolved in dimethylsulfoxide for adjustment. 49 μL of KEAP1 solution was added to a 96-well polystyrene microplate (FALCON) to which 1 μL of each test substance solution was added, followed by incubation for 15 minutes. Then, 50 μL of NRF2 solution was added to the above solution, followed by incubation for 1 hour. To measure the binding between NRF2 and KEAP1, NanoBRET Nano-Glo Substrate (Promega) diluted with Opti-Mem (Thermo Fisher Scientific) was added, followed by shaking for 30 seconds. Then, luminescence and fluorescence were measured using the GloMax Discover System (Promega). A 495-nm short pass filter and a 600-nm long pass filter were respectively used to measure donor and acceptor emission values. A value obtained by dividing the acceptor emission value by the donor emission value was regarded as BRET value. A BRET value when the compound was not added, and a BRET value when the KEAP1 solution was not added were respectively used as binding rates of 100% and 0%, and the binding rate when the compound was added was calculated. Further, using this binding rate, the 50% binding inhibitory activity concentration (IC50) was calculated from the following formula: IC50(M)=10^(LOG(A/B)×(50−C)/(D−C)+LOG(B)) • A: higher concentration out of 2 close concentrations across the inhibition rate of 50% • B: lower concentration out of 2 close concentrations across the inhibition rate of 50% • C: inhibition rate at B • D: inhibition rate at A

[2] = Measurement of metabolic stability in human liver microsomes; type: in vitro ADME; conditions: residual ratio of test compound after 30 minutes at 37° C. with human liver microsome, LC/MS/MS
Method: 1 mmol/L DMSO solutions of the compounds produced in the Examples were prepared. Each of the 1 mmol/L DMSO solutions was diluted with acetonitrile to 10 μmol/L, and then diluted with a 6.5 mmol/L Q-NADPH solution to 200 nmol/L. 50 μL of each solution was added to the reaction group and the non-reaction group. 50 μL of a 0.2 mg protein/mL human liver microsome (Mixed Gender, Pool of 50 livers; XenoTech, LLC) solution was added to the reaction group, followed by incubation at 37° C. for 30 minutes with shaking. After 400 μL of methanol was added to the non-reaction group, 50 μL of a 0.2 mg protein/mL human liver microsome solution was added to adjust the formulation. After incubation in the reaction group, 400 μL of methanol was added to stop the reaction. The samples of the reaction group and non-reaction group were allowed to stand at −20° C. for about 30 minutes, followed by centrifugation at 4° C. at 3000 rpm for about 10 minutes. The supernatant was analyzed using LC/MS/MS, and the residual ratio of the test compound was calculated from the peak area value of the test compound using the following formula. The measurement was carried out using the following devices: HPLC system: LC-20A-Series High Performance Liquid Chromatograph (Shimadzu Corporation) and mass spectrometer: API 4000 (AB Sciex Pte. Ltd.), or using equivalent devices. Residual ratio (%)=(peak area value of test compound in reaction group/peak area value of test compound in non-reaction group)×100 Results

T1 sequence (Q14145 whole entry): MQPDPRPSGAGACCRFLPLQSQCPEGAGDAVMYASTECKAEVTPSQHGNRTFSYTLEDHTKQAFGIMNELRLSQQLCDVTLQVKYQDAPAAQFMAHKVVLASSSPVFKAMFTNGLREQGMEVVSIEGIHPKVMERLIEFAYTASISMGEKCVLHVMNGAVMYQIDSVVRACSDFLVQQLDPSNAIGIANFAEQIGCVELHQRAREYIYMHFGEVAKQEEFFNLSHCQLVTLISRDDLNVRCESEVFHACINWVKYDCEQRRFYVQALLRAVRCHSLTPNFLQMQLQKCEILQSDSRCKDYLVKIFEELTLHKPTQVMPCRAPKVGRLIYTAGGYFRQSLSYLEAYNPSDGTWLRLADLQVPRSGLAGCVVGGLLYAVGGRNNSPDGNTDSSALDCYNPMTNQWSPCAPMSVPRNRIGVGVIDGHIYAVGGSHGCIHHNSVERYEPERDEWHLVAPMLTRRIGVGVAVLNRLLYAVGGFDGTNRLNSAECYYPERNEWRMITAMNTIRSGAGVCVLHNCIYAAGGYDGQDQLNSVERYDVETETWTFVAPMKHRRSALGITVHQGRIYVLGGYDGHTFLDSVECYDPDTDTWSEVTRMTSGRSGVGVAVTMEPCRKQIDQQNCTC

SMILES: CC[C@@H]1CN(Cc2cc(C(CC(=O)O)c3ccc(C(C)=O)n3C)ccc2C)S(=O)(=O)c2ccccc2O1 (stereo partly drawn) [Compound 33, 3-(5-acetyl-1-methyl-1H-pyrrol-2-yl)-3-(3-{[(R)-4-ethyl-1,1-dioxide-3,4-dihydro-2H-benzo[b][1,4,5]oxathiazepin-2-yl]methyl}-4-methylphenyl)propanoic acid]
- IC50 [1]: 0.3 nM
- Metabolic stability* [2]: 62%

SMILES: CC[C@@H]1CN(Cc2cc(C(CC(=O)O)c3ccc(C(=O)C4CC4)s3)ccc2C)S(=O)(=O)c2ccccc2O1 (stereo partly drawn) [Compound 20, 3-[5-(cyclopropanecarbonyl)thiophen-2-yl]-3-(3-{[(R)-4-ethyl-1,1-dioxide-3,4-dihydro-2H-benzo[b][1,4,5]oxathiazepin-2-yl]methyl}-4-methylphenyl)propanoic acid]
- IC50 [1]: 24 nM
- Metabolic stability* [2]: 7%

SMILES: CC[C@@H]1CN(Cc2cc(C(CC(=O)O)c3ccc(CNC(C)C)o3)ccc2C)S(=O)(=O)c2ccccc2O1 (stereo partly drawn) [Compound 32, 3-(3-{[(R)-4-ethyl-1,1-dioxide-3,4-dihydro-2H-benzo[b][1,4,5]oxathiazepin-2-yl]methyl}-4-methylphenyl)-3-(5-[(isopropylamino)methyl]furan-2-yl)propanoic acid]
- IC50 [1]: 205 nM
- Metabolic stability* [2]: 90%

SMILES: CC[C@@H]1CN(Cc2cc(C(CC(=O)O)c3nc(C)c(C(C)=O)s3)ccc2C)S(=O)(=O)c2ccccc2O1 (stereo partly drawn) [Compound 41, 3-(5-acetyl-4-methylthiazol-2-yl)-3-(3-[{(R)-4-ethyl-1,1-dioxide-3,4-dihydro-2H-benzo[b][1,4,5]oxathiazepin-2-yl]methyl}-4-methylphenyl) propanoic acid]
- IC50 [1]: 3.3 nM
- Metabolic stability* [2]: 65%

SMILES: CC[C@@H]1CN(Cc2cc(C(CC(=O)O)c3ccc(C(=O)NCCOC)o3)ccc2C)S(=O)(=O)c2ccccc2O1 (stereo partly drawn) [Compound 30, 3-(3-{[(R)-4-ethyl-1,1-dioxide-3,4-dihydro-2H-benzo[b][1,4,5]oxathiazepin-2-yl]methyl}-4-methylphenyl)-3-{5-[(2-methoxyethyl)carbamoyl]furan-2-yl}propanoic acid]
- IC50 [1]: 14 nM
- Metabolic stability* [2]: 81%

SMILES: CC[C@@H]1CN(Cc2cc(C(c3ccc(C(C)=O)o3)C(C)C(=O)O)ccc2C)S(=O)(=O)c2ccccc2O1 (stereo partly drawn) [Compound 24, 3-(5-acetylfuran-2-yl)-3-(3-{[(R)-4-ethyl-1,1-dioxide-3,4-dihydro-2H-benzo[b][1,4,5]oxathiazepin-2-yl]methyl}-4-methylphenyl)-2-methylpropanoic acid]
- IC50 [1]: 0.83 nM
- Metabolic stability* [2]: 72%

SMILES: CC[C@@H]1CN(Cc2cc(C(CC(=O)O)c3ccc(C(C)=O)n3CC)ccc2C)S(=O)(=O)c2ccccc2O1 (stereo partly drawn) [Compound 34, 3-(5-acetyl-1-ethyl-1H-pyrrol-2-yl)-3-(3-{[(R)-4-ethyl-1,1-dioxide-3,4-dihydro-2H-benzo[b][1,4,5]oxathiazepin-2-yl]methyl}-4-methylphenyl)propanoic acid]
- IC50 [1]: 47 nM
- Metabolic stability* [2]: 54%

SMILES: CC[C@@H]1CN(Cc2cc(C(CC(=O)O)c3ccc(C(=O)N4CCCC4)o3)ccc2C)S(=O)(=O)c2ccccc2O1 (stereo partly drawn) [Compound 28, 3-(3-{[(R)-4-ethyl-1,1-dioxide-3,4-dihydro-2H-benzo[b][1,4,5]oxathiazepin-2-yl]methyl}-4-methylphenyl)-3-[5-(pyrrolidine-1-carbonyl)furan-2-yl]propanoic acid]
- IC50 [1]: 19 nM
- Metabolic stability* [2]: 67%

SMILES: CC[C@@H]1CN(Cc2cc(C(CC(=O)O)c3cc4c(s3)C(=O)NC4)ccc2C)S(=O)(=O)c2ccccc2O1 (stereo partly drawn) [Compound 38, 3-(3-{[(R)-4-ethyl-1,1-dioxide-3,4-dihydro-2H-benzo[b][1,4,5]oxathiazepin-2-yl]methyl}-4-methylphenyl)-3-(6-oxo-5,6-dihydro-4H-thieno[2,3-c]pyrrol-2-yl) propanoic acid]
- IC50 [1]: 0.22 nM
- Metabolic stability* [2]: 61%

SMILES: CC[C@@H]1CN(Cc2cc(C(CC(=O)O)c3ccc(C(=O)N(C)C)o3)ccc2C)S(=O)(=O)c2ccccc2O1 (stereo partly drawn) [Compound 27, 3-[5-(dimethylcarbamoyl)furan-2-yl]-3-(3-{[(R)-4-ethyl-1,1-dioxide-3,4-dihydro-2H-benzo[b][1,4,5]oxathiazepin-2-yl]methyl}-4-methylphenyl)propanoic acid]
- IC50 [1]: 20 nM
- Metabolic stability* [2]: 85%

SMILES: CC[C@@H]1CN(Cc2cc(C(CC(=O)O)c3cc(C#N)n(C)c3)ccc2C)S(=O)(=O)c2ccccc2O1 (stereo partly drawn) [Compound 36, 3-(5-cyano-1-methyl-1H-pyrrol-3-yl)-3-(3-{[(R)-4-ethyl-1,1-dioxide-3,4-dihydro-2H-benzo[b][1,4,5]oxathiazepin-2-yl]methyl}-4-methylphenyl)propanoic acid]
- IC50 [1]: 2.5 nM
- Metabolic stability* [2]: 29%

SMILES: CC[C@@H]1CN(Cc2cc(C(CC(=O)O)c3cc(C)c(C(=O)NC)o3)ccc2C)S(=O)(=O)c2ccccc2O1 (stereo partly drawn) [Compound 31, 3-(3-{[(R)-4-ethyl-1,1-dioxide-3,4-dihydro-2H-benzo[b][1,4,5]oxathiazepin-2-yl]methyl}-4-methylphenyl)-3-[4-methyl-5-(methylcarbamoyl)furan-2-yl]propanoic acid]
- IC50 [1]: 99 nM
- Metabolic stability* [2]: 77%

SMILES: CC[C@@H]1CN(Cc2cc(C(CC(=O)O)c3ccc(C(=O)NC)o3)ccc2C)S(=O)(=O)c2ccccc2O1 (stereo partly drawn) [Compound 26, 3-(3-{[(R)-4-ethyl-1,1-dioxide-3,4-dihydro-2H-benzo[b][1,4,5]oxathiazepin-2-yl]methyl}-4-methylphenyl)-3-[5-(methylcarbamoyl)furan-2-yl]propanoic acid]
- IC50 [1]: 17 nM
- Metabolic stability* [2]: 93%

SMILES: CC[C@@H]1CN(Cc2cc(C(CC(=O)O)c3ncc(C(C)=O)s3)ccc2C)S(=O)(=O)c2ccccc2O1 (stereo partly drawn) [Compound 40, 3-(5-acetylthiazol-2-yl)-3-(3-{[(R)-4-ethyl-1,1-dioxide-3,4-dihydro-2H-benzo[b][1,4,5]oxathiazepin-2-yl]methyl}-4-methylphenyl)propanoic acid]
- IC50 [1]: 2.6 nM
- Metabolic stability* [2]: 69%

SMILES: CC[C@@H]1CN(Cc2cc(C(CC(=O)O)c3ccc(S(N)(=O)=O)s3)ccc2C)S(=O)(=O)c2ccccc2O1 (stereo partly drawn) [Compound 18, 3-(3-{[(R)-4-ethyl-1,1-dioxide-3,4-dihydro-2H-benzo[b][1,4,5]oxathiazepin-2-yl]methyl}-4-methylphenyl)-3-(5-sulfamoylthiophen-2-yl)propanoic acid]
- IC50 [1]: 35 nM
- Metabolic stability* [2]: 40%

SMILES: CC[C@@H]1CN(Cc2cc(C(CC(=O)O)c3ccc(C(=O)NC(C)C)o3)ccc2C)S(=O)(=O)c2ccccc2O1 (stereo partly drawn) [Compound 29, 3-(3-{[(R)-4-ethyl-1,1-dioxide-3,4-dihydro-2H-benzo[b][1,4,5]oxathiazepin-2-yl]methyl}-4-methylphenyl)-3-[5-(isopropylcarbamoyl)furan-2-yl]propanoic acid]
- IC50 [1]: 17 nM
- Metabolic stability* [2]: 83%

SMILES: CC[C@@H]1CN(Cc2cc(C(CC(=O)O)c3ccc(C(C)=O)o3)ccc2C)S(=O)(=O)c2ccccc2O1 (stereo partly drawn) [Compound 25, 3-(5-acetylfuran-2-yl)-3-(3-{[(R)-4-ethyl-1,1-dioxide-3,4-dihydro-2H-benzo[b][1,4,5]oxathiazepin-2-yl]methyl}-4-methylphenyl)propanoic acid]
- IC50 [1]: 3.8 nM
- Metabolic stability* [2]: 72%
